Series [1] relates to fibrin-induced microglia activation. As to the kind of experiment: Image-based assay of fibrin-induced microglia activation (HTS and dose response). The class given is cell-based, rat. To be noted: for IC50 / inhibition at 10 µM: Rattus norvegicus, Microglia; for inhibition at 10 µM: read-out: Fibrin % inhibition.
Series [2] in a line: in vitro. To be noted: rat, Cell Toxicity IC50 (uM) [cFib assay].
Series [3] relates to primary rat microglia. Particulars: rat.
Series [4] relates to LPS-induced microglia activation. As to the kind of experiment: Image-based assay of LPS-induced microglia activation (HTS and dose response). Format: cell-based, rat. Particulars: Rattus norvegicus, Microglia; for inhibition at 10 µM: read-out: LPS % inhibition.
Series [5] has as its system fibrin- and LPS-induced microglia activation. As to the kind of experiment: cells. Format: cell-based, rat. To be noted: for inhibition at 10 µM: Rattus norvegicus.
The test system of series [6] is primary rat microglia. Particulars: rat. The source holds these as a separate data set.
Series [7] can be described thus: in vitro. To be noted: rat.
In series [8] the test system is primary rat microglia. Briefly: Cell toxicity (dead cells, size <150 μm2) in coated fibrin (cFib) assay.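 For Fibrin % cell toxicity: share of dead cells sized under 150 µm2 at 10 µM in fibrin-stimulated microglia HTS.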 To be noted: primary microglia HTS.
The subject of series [9] is primary rat microglia. Briefly: Cell toxicity (dead cells, size <150 μm2) in LPS assay. Particulars: for LPS % cell toxicity: primary microglia HTS, LPS stimulation, decreased size (<150 μm^2) as marker of toxicity; for IC50: read-out: Cell Toxicity IC50 (uM) [LPS assay], LPS assay.
Where [10] appears, read: Microglia, read-out: Cherry-picked Hit (Suppl. Table 7).
Setting [11] is: fibrin assay, dead cells (size <150 μm2).
The mark [12] stands for this setting: fibrin stimulation, decreased size (<150 μm^2) as marker of toxicity.
Where [13] appears, read: 48 h, Table 1, dose response 0.001-20 μM, triplicates, primary rat microglia, 48 h, read-out: Fibrin IC50.
Where [14] appears, read: Table 3, read-out: Fibrin IC50 (uM) (Suppl. Table 7).
[15] abbreviates: dose response, fibrin-induced microglia activation, read-out: Fibrin IC50.
The mark [16] stands for this setting: fibrin-induced microglia activation, dose response, read-out: Fibrin IC50 (uM) (Suppl. Table 7).
The mark [17] stands for this setting: primary microglia HTS, fibrin stimulation, compounds at 10 μM.
Where [18] appears, read: primary microglia HTS, fibrin stimulation, increased cell size (>800 μm^2) as marker of activation.
Where [19] appears, read: 48 h, Table 1, dose response 0.001-20 μM, triplicates, primary rat microglia, 48 h, read-out: LPS IC50.
Where [20] appears, read: 48 h, primary microglia HTS, LPS stimulation, increased cell size (>800 μm^2) as marker of activation.
[21] abbreviates: LPS-induced microglia activation, dose response, read-out: LPS IC50 (uM) (Suppl. Table 7).
Setting [22] is: Table 3, read-out: LPS IC50 (uM) (Suppl. Table 7).
[23] abbreviates: dose response, LPS-induced microglia activation, read-out: LPS IC50.
The mark [24] stands for this setting: primary microglia HTS, LPS stimulation, compounds at 10 μM.
Where [25] appears, read: HTS of 1907 compounds, quadrant by fibrin and LPS inhibition.
[26] abbreviates: Microglia, Table 3, read-out: Cherry-picked Hit (Suppl. Table 7).
Setting [27] is: Microglia, HTS hit classification, read-out: Hit.
Where [28] appears, read: quadrant by fibrin and LPS inhibition in HTS of 1907 compounds.
Where [29] appears, read: quadrant by fibrin and LPS inhibition, HTS at 10 μM.
Where [30] appears, read: hit classification in microglia HTS, read-out: Cherry-picked Hit (Suppl. Table 7).
Where [31] appears, read: classification by fibrin and LPS inhibition, HTS at 10 μM.

Like-named read-outs stand apart in the source and are kept apart here. Where a SMILES comes first, the peptide text is derived from it. Bridges are numbered along the chain shown (N, C = ends). [ ]: non-standard residue; d: D form. The star is where a group is joined. Ileψ(thiazoline)Cys = CC[C@H](C)[C@H](N)C1=N[C@H](C(=O)*)CS1; dOrn = NCCC[C@@H](N)C(=O)O

`CCCSc1ccc2nc(NC(=O)OC)[nH]c2c1` [Albendazole, reference compound]: the “Fibrin Selectivity” value in series [1] is given as 2. Further, the “Fibrin Selectivity (LOG10)” value in [1] worked out at 0.22. Moreover, the IC50 in series [1] (48 h, read-out: Fibrin IC50) is 4 µM; in series [1] (read-out: Fibrin IC50 (uM)) it was 4 µM; in [1] (read-out: Fibrin IC50 (uM) (Suppl. Table 7)) it was 4 µM; in the series “in vitro [2]” it was more than 20 µM; in series [4] (48 h, read-out: LPS IC50), 6 µM; in series [4] (read-out: LPS IC50 (uM)), 6 µM. In addition, the IC50 in [4] (read-out: LPS IC50 (uM) (Suppl. Table 7)) is 6 µM; in the series “in vitro [7]” it was more than 20 µM. Also, the inhibition at 10 µM in series [1] was 64%; in series [4] (48 h), 16%; in [5] (setting [10]), more than 50%; in series [5] (Microglia, read-out: Hit), more than 50%. Also, the “Fibrin % cell toxicity” value in the series with primary rat microglia [3] is 1%. Besides, the “Quadrant (FIG. 5b)” value in series [5] is recorded as “Q3”. Besides, the “LPS % cell toxicity” value with primary rat microglia [6] turned out to be 1%.

For `Clc1ccc2c(c1)C(N1CCNCC1)=Nc1ccccc1O2` [Amoxapine, reference compound], the inhibition at 10 µM in series [1] was 58%; in series [4] (48 h), 43%; in series [5] (setting [10]) it was more than 50%; in [5] (Microglia, read-out: Hit), more than 50%. Also, the IC50 in “in vitro [2]” and in “in vitro [7]” was more than 20 µM in each case. In the series on primary rat microglia [3], the “Fibrin % cell toxicity” value was determined as 0%. For the same molecule, in [5], the “Quadrant (FIG. 5b)” value is given as “Q3”. For the same molecule, the “LPS % cell toxicity” value in the series on primary rat microglia [6] is reported as 1%.

As for `C[C@H]1[C@H](OC(=O)CCC(=O)O)O[C@@H]2O[C@@]3(C)CC[C@H]4[C@H](C)CC[C@@H]1[C@@]24OO3` [Artesunate, reference compound], the “Fibrin % cell toxicity” value with primary rat microglia [8] (setting [11]) and in the series on primary rat microglia [8] (setting [12]) was 1% each time. Further, the “LPS % cell toxicity” value in the series with primary rat microglia [9] and with primary rat microglia [6] was 0% each time. Besides, the IC50 in the series on primary rat microglia [9] is more than 20 µM; in series [1] (setting [13]), 7 µM; in [1] (setting [14]), 7 µM; in series [1] (setting [15]), 7 µM; in series [1] (setting [16]) it was 7 µM; in the series “in vitro [2]” (Table 3) it was more than 20 µM. The IC50 (in the series “in vitro [2]” (cFib assay); in series [4] (setting [19]); in series [4] (setting [21]); in series [4] (setting [22]); in [4] (setting [23]); in “in vitro [7]”) was more than 20 µM throughout. Also, the “Fibrin Selectivity” value in series [1] was 3. In series [1], the “Fibrin Selectivity (LOG10)” value amounted to 0.45. For the same molecule, the inhibition at 10 µM in [1] (setting [17]) was 47%; in series [1] (setting [18]) it was 63%; in [4] (setting [20]), 20%; in [4] (setting [24]), 7%; in series [5] (setting [26]) it was more than 50%; in series [5] (setting [27]) it was more than 50%. Further, the “Quadrant (FIG. 5b)” value in series [5] (setting [25]) is reported as “Q3”; in [5] (Table 1, screen at 10 μM) it was “Q3”; in series [5] (Table 3, screen at 10 μM) it was “Q3”; in [5] (setting [28]), “Q3”; in series [5] (setting [29]), “Q4”.

In the case of `CC[C@H](C)[C@H](N)C1=N[C@H](C(=O)N[C@@H](CC(C)C)C(=O)N[C@H](CCC(=O)O)C(=O)N[C@H](C(=O)N[C@H]2CCCCNC(=O)[C@H](CC(N)=O)NC(=O)[C@@H](CC(=O)O)NC(=O)[C@H](Cc3cnc[nH]3)NC(=O)[C@@H](Cc3ccccc3)NC(=O)[C@H]([C@@H](C)CC)NC(=O)[C@@H](CCCN)NC2=O)[C@@H](C)CC)CS1` [Bacitracin, reference compound] ({Ileψ(thiazoline)Cys}-L[dE]IK[dOrn]I[dF]H[dD]N; lactam 4-C), the “Fibrin % cell toxicity” value in the series on primary rat microglia [8] (setting [11]) is listed as 0%; with primary rat microglia [8] (setting [12]) it was 1%. Also, the “LPS % cell toxicity” value amounted to 0% in the series on primary rat microglia [9] and 1% in the series on primary rat microglia [6]. Also, the IC50 (in series [1] (setting [13]); in series [1] (setting [15]); in [1] (setting [16]); in “in vitro [2]” (cFib assay); in series [4] (setting [19]); in [4] (setting [21])) was more than 20 µM in each case. Besides, the 50% inhibitory concentration (IC50) (in series [4] (setting [23]); in “in vitro [7]”) was more than 20 µM each time. For the same molecule, the inhibition at 10 µM in series [1] (setting [17]) was -7%; in series [1] (setting [18]), 82%; in series [4] (setting [20]) it was 21%; in series [4] (setting [24]), 6%; in series [5] (setting [27]), more than 50%; in [5] (setting [30]), more than 50%. Further, the “Quadrant (FIG. 5b)” value in series [5] (setting [25]) is recorded as “Q3”; in series [5] (Table 1, screen at 10 μM), “Q3”; in series [5] (setting [28]), “Q3”; in series [5] (setting [29]) it was “Q4”.

Regarding `CC(=O)OCC(=O)[C@@]1(OC(C)=O)[C@@H](C)C[C@H]2[C@@H]3C[C@H](F)C4=CC(=O)C=C[C@]4(C)[C@@]3(F)[C@@H](O)C[C@@]21C` [Diflorasone diacetate, reference compound], the “Fibrin % cell toxicity” value with primary rat microglia [8] (fibrin assay, dead cells (size <150 μm2), compounds at 10 μM) is on record as 1%; in the series with primary rat microglia [8] (setting [12]), 1%. Moreover, the entries for the “LPS % cell toxicity” value in the series with primary rat microglia [9] and in the series on primary rat microglia [6] were 1% and 0%, respectively. The IC50 was more than 20 µM with primary rat microglia [9]; more than 20 µM with primary rat microglia [9] (Table 6); 0.01 µM in series [1] (setting [13]); 0.01 µM in [1] (setting [14]); 0.01 µM in [1] (Table 6, read-out: Fibrin IC50 (uM) (Suppl. Table 7)); 0.01 µM in [1] (setting [15]). The IC50 in series [1] (setting [16]) was 0.01 µM; in “in vitro [2]” (Table 3), more than 20 µM; in “in vitro [2]” (cFib assay), more than 20 µM; in “in vitro [2]” (cFib assay, Table 6) it was more than 20 µM; in [4] (setting [19]), more than 20 µM; in [4] (setting [21]), more than 20 µM. For the same molecule, the IC50 is more than 20 µM in [4] (setting [22]); more than 20 µM in [4] (Table 6, read-out: LPS IC50 (uM) (Suppl. Table 7)); more than 20 µM in series [4] (setting [23]); more than 20 µM in “in vitro [7]”. For the same molecule, the “Fibrin Selectivity” value in series [1] is reported as 2188; in series [1] (fibrin vs LPS, Table 6), 2188. Moreover, the “Fibrin Selectivity (LOG10)” value is recorded as 3.34 in [1] and 3.34 in series [1] (fibrin vs LPS, LOG10, Table 6). The inhibition at 10 µM in series [1] (setting [17]) was 42%; in series [1] (setting [18]), 76%; in series [4] (setting [20]), 39%; in series [4] (setting [24]), 31%; in series [5] (setting [26]), more than 50%; in [5] (setting [27]), more than 50%. For the same molecule, the “Quadrant (FIG. 5b)” value in [5] (setting [25]) is “Q3”; in series [5] (Table 1, screen at 10 μM) it was “Q3”; in [5] (Table 3, screen at 10 μM), “Q3”; in series [5] (setting [31]), “Q4”; in series [5] (microglia HTS, Table 6), “Q3”; in series [5] (setting [28]) it was “Q3”.

Consider `C#C[C@]1(O)CC[C@H]2[C@@H]3CCc4cc(O)ccc4[C@H]3CC[C@@]21C` [Ethinyl estradiol, reference compound], for which the half-maximal inhibitory concentration (IC50) (in series [1] (setting [13]); in series [1] (setting [15]); in series [1] (setting [16]); in “in vitro [2]”; in series [4] (setting [19]); in series [4] (setting [21])) was more than 20 µM in each case. In addition, the IC50 (in series [4] (setting [23]); in “in vitro [7]”) was more than 20 µM each time. Moreover, the inhibition at 10 µM in series [1] (setting [17]) is 9%; in series [1] (setting [18]), 58%; in [4] (setting [20]) it was 37%; in series [4] (setting [24]), 5%; in series [5] (setting [27]), more than 50%; in series [5] (setting [30]), more than 50%. In addition, in the series with primary rat microglia [3], the “Fibrin % cell toxicity” value was determined as 1%. Besides, the “Quadrant (FIG. 5b)” value in series [5] (setting [25]) is “Q3”; in series [5] (Table 1, screen at 10 μM), “Q3”; in series [5] (setting [31]), “Q4”; in series [5] (setting [28]), “Q3”.

Values taken from patent US20210330611A1, “THERAPY FOR NEUROLOGICAL DISEASES/DISORDERS” (priority 2020, published 2021).
